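Results reflect a 48-hour exposure of cells in 96-well plates to compound at five concentrations. The concentration for full growth arrest is given as TGI.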
What was measured:
Experiment in all cases: NCI-60 cell line screen, 48 h
HOP-92 NSCLC = test system: HOP-92 NSCLC
MDA-MB-231 breast = test system: MDA-MB-231 breast
IGROV1 ovarian = test system: IGROV1 ovarian
DU-145 prostate = test system: DU-145 prostate
SK-MEL-28 melanoma = test system: SK-MEL-28 melanoma
SK-MEL-5 melanoma = test system: SK-MEL-5 melanoma
PC-3 prostate = test system: PC-3 prostate
HCT-15 colon = test system: HCT-15 colon
UACC-62 melanoma = test system: UACC-62 melanoma
CAKI-1 renal = test system: CAKI-1 renal
NCI-H23 lung = test system: NCI-H23 lung
SF-295 CNS = test system: SF-295 CNS
HOP-62 NSCLC = test system: HOP-62 NSCLC
SF-539 CNS = test system: SF-539 CNS
SN12C renal = test system: SN12C renal
K-562 leukemia = test system: K-562 leukemia
UACC-257 melanoma = test system: UACC-257 melanoma
ACHN renal = test system: ACHN renal
OVCAR-5 ovarian = test system: OVCAR-5 ovarian
A498 renal = test system: A498 renal
EKVX NSCLC = test system: EKVX NSCLC
A549 NSCLC = test system: A549 NSCLC
SK-MEL-2 melanoma = test system: SK-MEL-2 melanoma
TK-10 renal = test system: TK-10 renal
BT-549 breast = test system: BT-549 breast
RXF 393 renal = test system: RXF 393 renal
SR leukemia = test system: SR leukemia
CCRF-CEM leukemia = test system: CCRF-CEM leukemia
LOX IMVI melanoma = test system: LOX IMVI melanoma
RPMI-8226 leukemia = test system: RPMI-8226 leukemia
786-0 renal = test system: 786-0 renal
T-47D breast = test system: T-47D breast
SF-268 CNS = test system: SF-268 CNS
MCF7 breast = test system: MCF7 breast
COLO 205 colon = test system: COLO 205 colon
MDA-MB-435 = test system: MDA-MB-435
HS 578T breast = test system: HS 578T breast
OVCAR-3 ovarian = test system: OVCAR-3 ovarian
HCC-2998 colon = test system: HCC-2998 colon
M14 melanoma = test system: M14 melanoma
NCI-H522 lung = test system: NCI-H522 lung
MDA-N = test system: MDA-N
MALME-3M melanoma = test system: MALME-3M melanoma
KM12 colon = test system: KM12 colon
MOLT-4 leukemia = test system: MOLT-4 leukemia
SNB-19 CNS = test system: SNB-19 CNS
UO-31 renal = test system: UO-31 renal
HT29 colon = test system: HT29 colon
U251 CNS = test system: U251 CNS
NCI/ADR-RES ovarian = test system: NCI/ADR-RES ovarian
SNB-75 CNS = test system: SNB-75 CNS
OVCAR-4 ovarian = test system: OVCAR-4 ovarian
SW-620 colon = test system: SW-620 colon
HCT-116 colon = test system: HCT-116 colon
HL-60(TB) leukemia = test system: HL-60(TB) leukemia
SK-OV-3 ovarian = test system: SK-OV-3 ovarian
NCI-H460 lung = test system: NCI-H460 lung
OVCAR-8 ovarian = test system: OVCAR-8 ovarian
NCI-H226 lung = test system: NCI-H226 lung
DLD-1 colon = test system: DLD-1 colon
DMS 114 small cell lung = test system: DMS 114 small cell lung
LXFL 529 NSCLC = test system: LXFL 529 NSCLC
M19-MEL melanoma = test system: M19-MEL melanoma
SNB-78 CNS = test system: SNB-78 CNS
HOP-18 NSCLC = test system: HOP-18 NSCLC
DMS 273 small cell lung = test system: DMS 273 small cell lung
KM20L2 colon = test system: KM20L2 colon

Measured: TGI

CC(=C(C(=O)O)C(=O)O)c1cc(-c2cccs2)cc(-c2ccc(Cl)cc2)c1O
30.6 µM: DU-145 prostate
32.2 µM: EKVX NSCLC | 786-0 renal
40.5 µM: HT29 colon
29.6 µM: RXF 393 renal | LOX IMVI melanoma
52.8 µM: OVCAR-8 ovarian
57.2 µM: NCI/ADR-RES ovarian
36.3 µM: SK-MEL-28 melanoma
46.5 µM: SF-295 CNS
24.2 µM: KM12 colon
17.9 µM: MCF7 breast
69.7 µM: MOLT-4 leukemia
46.6 µM: HL-60(TB) leukemia
> 88.6 µM: SK-MEL-2 melanoma
> 71.9 µM: OVCAR-4 ovarian
> 90.7 µM: HS 578T breast
37.5 µM: HCT-15 colon
31.9 µM: TK-10 renal
15.6 µM: RPMI-8226 leukemia
31.4 µM: MDA-N
35.1 µM: MDA-MB-435
32.7 µM: M14 melanoma
34.4 µM: BT-549 breast
> 86.8 µM: OVCAR-5 ovarian
29.4 µM: ACHN renal
29.3 µM: IGROV1 ovarian | U251 CNS
33.5 µM: UACC-257 melanoma
29.8 µM: SF-539 CNS
34.3 µM: HOP-92 NSCLC
43.6 µM: SW-620 colon
33.3 µM: NCI-H522 lung
38 µM: HCC-2998 colon
> 53.6 µM: K-562 leukemia
30.5 µM: SN12C renal
> 80.8 µM: A549 NSCLC
> 52.8 µM: SK-MEL-5 melanoma
44.8 µM: COLO 205 colon
> 82.5 µM: SK-OV-3 ovarian
37.3 µM: NCI-H460 lung
28.3 µM: PC-3 prostate
35.7 µM: UACC-62 melanoma
43.5 µM: MDA-MB-231 breast
30.8 µM: A498 renal
21.3 µM: T-47D breast
33.6 µM: OVCAR-3 ovarian
37.6 µM: SNB-75 CNS
> 72.2 µM: NCI-H226 lung
> 76.5 µM: CCRF-CEM leukemia
37.1 µM: SR leukemia | SNB-19 CNS
54.9 µM: SF-268 CNS
60.4 µM: HOP-62 NSCLC
41 µM: MALME-3M melanoma
32.6 µM: NCI-H23 lung
40.6 µM: CAKI-1 renal
24.5 µM: UO-31 renal
29.1 µM: HCT-116 colon

Cc1ccc(S(=O)(=O)N/N=C(\C(=O)Nc2cccc([N+](=O)[O-])c2)c2nc3ccc([N+](=O)[O-])cc3[nH]c2=O)cc1
99.1 µM: DMS 114 small cell lung
69.9 µM: HCC-2998 colon
not listed: MDA-MB-231 breast | DU-145 prostate | PC-3 prostate | TK-10 renal | BT-549 breast | T-47D breast | MCF7 breast | MDA-MB-435 | HS 578T breast | MDA-N | NCI/ADR-RES ovarian | SNB-75 CNS | HL-60(TB) leukemia | HOP-18 NSCLC | DMS 273 small cell lung | KM20L2 colon
> 100 µM: all other assays above

COc1cc(/C=N/NC2=NCCCN2)ccc1O
not listed: CAKI-1 renal | DLD-1 colon | DMS 114 small cell lung | LXFL 529 NSCLC | M19-MEL melanoma | SNB-78 CNS | HOP-18 NSCLC | DMS 273 small cell lung | KM20L2 colon
> 100 µM: all other assays above

CCOC(=O)/C=C1\Nc2ccccc2-n2nnnc21
64.5 µM: U251 CNS
93.5 µM: DMS 273 small cell lung
58.6 µM: SW-620 colon
not listed: MDA-MB-231 breast | DU-145 prostate | PC-3 prostate | BT-549 breast | T-47D breast | MCF7 breast | MDA-MB-435 | HS 578T breast | NCI-H522 lung | MDA-N | NCI/ADR-RES ovarian
> 100 µM: all other assays above
